Laboratory results published in PubChem BioAssay AID1645862 (Buhrlage Lab, Dana-Farber Cancer Institute and Novartis …, 2021).
Active and inactive are the calls of the source. How the calls were made is not given here.

The compounds below were run against Ubiquitin carboxyl-terminal hydrolase 8 (Homo sapiens) (UniProt P40818) (assay: Ubiquitin-specific protease 8 inhibitors, concentration-effect, biochemical, validation of initial actives (AID 1645862;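 further: potency reflects inhibition of USP8 cleavage of a ubiquitin rhodamine substrate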)). Settings: recombinant USP8 deubiquitinase activity assay.
Sequence of Ubiquitin carboxyl-terminal hydrolase 8 (Homo sapiens) (P40818 whole entry, looked up): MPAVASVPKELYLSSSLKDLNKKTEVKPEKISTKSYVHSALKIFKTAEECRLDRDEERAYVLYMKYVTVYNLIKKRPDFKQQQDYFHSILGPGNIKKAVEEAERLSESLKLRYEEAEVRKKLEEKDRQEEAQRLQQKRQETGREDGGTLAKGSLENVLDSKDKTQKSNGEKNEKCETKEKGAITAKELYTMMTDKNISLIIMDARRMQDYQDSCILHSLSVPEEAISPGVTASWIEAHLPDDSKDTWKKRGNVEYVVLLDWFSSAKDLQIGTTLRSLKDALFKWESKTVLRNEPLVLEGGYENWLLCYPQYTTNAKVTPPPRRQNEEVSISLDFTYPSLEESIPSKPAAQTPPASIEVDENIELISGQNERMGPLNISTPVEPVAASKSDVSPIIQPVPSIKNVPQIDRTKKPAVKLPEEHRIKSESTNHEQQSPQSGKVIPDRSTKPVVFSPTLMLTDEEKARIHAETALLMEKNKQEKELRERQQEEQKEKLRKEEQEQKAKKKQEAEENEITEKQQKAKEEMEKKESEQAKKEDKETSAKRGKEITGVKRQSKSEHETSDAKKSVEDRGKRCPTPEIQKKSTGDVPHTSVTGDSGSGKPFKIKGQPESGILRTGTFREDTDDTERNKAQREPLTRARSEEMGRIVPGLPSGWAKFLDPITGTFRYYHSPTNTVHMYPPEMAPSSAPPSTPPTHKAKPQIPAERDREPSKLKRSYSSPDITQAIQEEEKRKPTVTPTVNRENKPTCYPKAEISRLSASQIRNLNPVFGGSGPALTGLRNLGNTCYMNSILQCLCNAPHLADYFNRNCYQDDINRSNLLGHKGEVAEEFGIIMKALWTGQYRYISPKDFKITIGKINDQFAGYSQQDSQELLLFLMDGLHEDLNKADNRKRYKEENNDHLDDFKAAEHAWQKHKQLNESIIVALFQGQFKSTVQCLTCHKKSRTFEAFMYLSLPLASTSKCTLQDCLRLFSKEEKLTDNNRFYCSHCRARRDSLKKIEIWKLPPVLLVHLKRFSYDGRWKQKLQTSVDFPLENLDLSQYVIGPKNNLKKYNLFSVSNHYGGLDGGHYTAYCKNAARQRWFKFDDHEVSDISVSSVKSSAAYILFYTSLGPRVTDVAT

SMILES	IC50
Cc1ccc(CNC(=O)CCCn2c(=O)c3sccc3n(CC(=O)OCc3ccccc3)c2=O)cc1	> 40 µM (inactive)
O=C(Cn1c(=O)n(CCC(=O)N2CCc3ccccc3C2)c(=O)c2ccccc21)NCc1ccccc1Cl	> 40 µM (inactive)
CC1=CC(=O)C(C2=C(O)C(=O)C(C)=CC2=O)=C(O)C1=O	9.22 µM
O=c1c2cc(Br)ccc2[nH]c(=S)n1Cc1cccnc1	> 40 µM (inactive)
Nc1ccc(C(=O)OCC(=O)NC2CCCc3ccccc32)cc1[N+](=O)[O-] (configuration not stated)	> 40 µM (inactive)
Cc1ccc(NC(=O)Cn2c(=O)n(CC(=O)NCCc3ccccc3)c(=O)c3sccc32)cc1C	> 40 µM (inactive)
Cc1nn(-c2ccccc2)c2c1N=C1C(Cl)=CC(Cl)=CN1C21C(=O)Nc2ccccc21 (configuration not stated)	> 40 µM (inactive)
CC(=O)Nc1ccc(Cc2nc(-c3ccc4c(c3)nc(C)c(=O)n4C3CCCC3)no2)cc1	> 40 µM (inactive)
O=C(Oc1ccc2cc(Br)ccc2c1)c1ccncc1	> 40 µM (inactive)
Cc1cc(=O)n2c3c(c4c(cc13)c(CO)cc(=O)n4C)OC2	22.6 µM
O=C1Cc2ccccc2C(=O)N1Cc1cccc(Cl)c1	4.12 µM
O=C(NCCN1CCOCC1)c1cn2cc(Cl)ccc2n1	> 40 µM (inactive)
COc1ccccc1C(=O)Nc1ccc(Oc2ncnc3sc(-c4ccccc4)cc23)cc1	> 40 µM (inactive)
O=C(c1ccc(Cl)cc1)N(c1ccccn1)C1CCCCC1	> 40 µM (inactive)
O=C(c1ccc2occc2c1)N1CCC(S(=O)(=O)c2ccc(-c3ccco3)cc2)CC1	> 40 µM (inactive)
COc1cccc(C2c3[nH]c4ccccc4c3C[C@@H]3C(=O)N(CC(O)c4ccccc4)CC(=O)N23)c1 (some centres not stated)	> 40 µM (inactive)
Cc1nc(-c2ccc(Cl)cc2)oc1C(=O)Nc1ccc(Cl)cc1	> 40 µM (inactive)
COc1ccc(-c2nc(-c3nnn(Cc4ccc(F)cc4)c3C)no2)c(OC)c1	> 40 µM (inactive)
CCCCCC(=O)C(CCCC)c1oc(=O)c(CCCC)c(O)c1CCCC (configuration not stated)	> 40 µM (inactive)
O=S1(=O)CCN(CC2CCCO2)c2c(Oc3ccccc3)nc(F)c(Cl)c21 (configuration not stated)	> 40 µM (inactive)
O=C(Nc1ccc2c(c1)OCCO2)C1CCC(Cn2cnc3ccccc3c2=O)CC1 (configuration not stated)	> 40 µM (inactive)
CN(C)c1ccc(CNC(=O)c2nnc(C(=O)Nc3ccccc3)s2)cc1	> 40 µM (inactive)
O=C(Nc1ccc(Br)cc1F)c1ccc(S(=O)(=O)N2CCCC2)cc1	> 40 µM (inactive)
CC(C)(C)C(=O)Nc1ccc(C(=O)Nc2cccc(-c3nnc(-c4ccccc4)o3)c2)cc1	> 40 µM (inactive)

Next, values leading:

IC50	SMILES
> 40 µM (inactive)	COc1ccc(-c2cc3nc([C@H](C)NC(=O)Cc4cccc(F)c4)nn3cn2)cc1
> 40 µM (inactive)	COc1cc(Cl)c(C)cc1NC(=O)Cn1c(=O)n(CC(=O)NCc2ccco2)c(=O)c2ccccc21
> 40 µM (inactive)	COc1ccc(-c2noc(CC(=O)Nc3cccc(OC)c3)n2)cc1
27.3 µM	Cc1ccc(C)c(NC(=O)Cn2cc(C(=O)C3CC3)c3ccccc32)c1
1.44 µM	CO/C=C/C(=O)c1cc2cnc3c(=N)cc(NC(C)=O)c([nH]1)c23
> 40 µM (inactive)	COc1ccc2nc(N3CC(C(=O)Nc4ccc(C(N)=O)cc4)C3)sc2c1
> 40 µM (inactive)	COc1ccc(C(=O)C(C)OC(=O)c2cccc(S(=O)(=O)Nc3cc([N+](=O)[O-])ccc3OC)c2)c(OC)c1 (configuration not stated)
> 40 µM (inactive)	COc1ccccc1NC(=O)Cn1cc(C(=O)c2ccc(C)cc2)c(=O)c2cc(Cl)ccc21
> 40 µM (inactive)	COc1ccc(CNC(=O)c2ccc3c(=O)nc4c(-c5cccc(C)c5)n[nH]n4c3c2)cc1
> 40 µM (inactive)	CCC(=O)Nc1nc2cc(NC(=O)Nc3cccc(C)c3)ccc2s1
26.3 µM	COc1cc(/C=C/C(=O)OCC(=O)Nc2ccc([N+](=O)[O-])cc2OC)ccc1O
> 40 µM (inactive)	COc1ccc(N/C=C/c2onc(C)c2[N+](=O)[O-])c(OC)c1
24.2 µM	COc1ccc(Cl)cc1NC(=O)COC(=O)c1cc2ccccc2oc1=O
